pIC50: −log10 of the molar value.
Target: T1, Indoleamine 2,3-Dioxygenase (IDO1) in SKOV-3 cells (Homo sapiens, UniProt P14902)
T1 construct: endogenous in cells; host or cells: SKOV-3 (ATCC HTB-77), stimulated with 50 ng/ml interferon gamma
Test: SKOV-3 cellular indoleamine 2,3-dioxygenase assay
Details: 50 ng/ml Interferon gamma, 100 μM L-Tryptophan, 24 hours, N-Formylkynurenin fluorescence, read-out: cell based activity (IC50)
Method: SKOV-3 Cellular Indoleamine 2,3-Dioxygenase Assay
SKOV-3 cells were obtained from the American Type Culture Collection (ATCC® HTB-77™) and maintained in McCoy's medium (Pan Biotech) supplemented with 10% fetal bovine serum and 1% Penicilin/Streptomycin. Cells were kept at 37° C. in a humidified incubator with 5% CO2. For assay preparation, cells were seeded at a density of 2*10^5/m into black clear bottom 96 well plates in 100 μl medium/well supplemented with 50 ng/ml Interferon gamma (eBioscience, Thermo Fisher Scientific). After cells fully adhered to the plate, dilution series of compounds were added in medium containing additional L-Tryptophan to a final L-Tryptophan concentration of 100 μM. The cells were incubated for 24 hours. Detection of produced N-Formylkynurenin was performed by addition of 3-Methylpiperidine to a final concentration of 200 mM. The plates were sealed and heated to 65° C. for 20 minutes in a water bath. After cooling the fluorescence of each well was recorded with a Victor™ X4 (PerkinElmer) plate reader at an emission wavelength of 535 nm and excitation at 405 nm (Tomek et al.; Anal Bioanal Chem (2013) 405:2515-2524., Tomek et al.; Biochim Biophys Acta. 2015 September; 1850(9):1772-80).

T1 sequence (P14902 whole entry): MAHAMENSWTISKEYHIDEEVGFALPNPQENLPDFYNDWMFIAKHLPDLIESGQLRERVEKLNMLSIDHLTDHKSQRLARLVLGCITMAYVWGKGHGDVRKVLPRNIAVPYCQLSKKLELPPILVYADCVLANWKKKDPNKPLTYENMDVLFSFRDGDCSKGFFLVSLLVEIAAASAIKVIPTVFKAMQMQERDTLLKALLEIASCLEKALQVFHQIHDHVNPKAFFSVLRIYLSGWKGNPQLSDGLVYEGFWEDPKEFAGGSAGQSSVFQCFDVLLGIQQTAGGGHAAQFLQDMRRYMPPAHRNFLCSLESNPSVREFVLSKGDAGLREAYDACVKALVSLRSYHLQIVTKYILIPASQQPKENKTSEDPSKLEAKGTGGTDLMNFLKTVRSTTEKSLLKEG

Row | pIC50 | SMILES
1 | 6.00 to 7.00 | O=C(Nc1ccc(C(F)(F)F)cn1)C(=O)N1CCC(c2ccnc3ccc(F)cc23)CC1 [5/2]
2 | < 6.00 | O=C(Nc1ccc(Cl)cn1)C(=O)N1CCC2(CC1)OCc1ccncc12 [100/5]
3 | > 7.00 | Cc1ccc(NC(=O)C(=O)N2CCC(c3ccnc4ccc(F)cc34)CC2)c(F)c1 [1/24]
4 | < 6.00 | CN(C(=O)C(=O)N1CCC(c2ccnc3ccc(F)cc23)CC1)c1ccc(Cl)cn1 [2/3]
5 | < 6.00 | O=C(Nc1ccc(Cl)cn1)C(=O)N1CCC(c2ccc(C(=O)O)c3ccccc23)CC1 [Example 9, 4-(1-(2-((5-Chloropyridin-2-yl)amino)-2-oxoacetyl)piperidin-4-yl)-1-naphthoic Acid]
6 | 6.00 to 7.00 | O=C(Nc1ccc(OCC(F)(F)F)cc1)C(=O)N1CCC(c2ccnc3ccc(F)cc23)CC1 [1/41]
7 | 6.00 to 7.00 | O=C(Nc1ccc(Cl)cn1)C(=O)N1CCC2(CC1)OCc1cc(Cl)ccc12 [100/8]
8 | > 7.00 | O=C(Nc1ccc(Cl)cc1)C(=O)N1CCC2(CC1)OCc1cc(C(F)(F)F)ccc12 [100/12]
9 | > 7.00 | O=C(Nc1ccc(Cl)cc1)C(=O)N1CCC2(CC1)OCc1cc(C(F)(F)F)c(F)cc12 [100/13]
10 | 6.00 to 7.00 | N#Cc1ccc2nccc(C3CCN(C(=O)C(=O)Nc4ccc(Cl)cc4)CC3)c2c1 [1/44]
11 | > 7.00 | O=C(Nc1ccc(Cl)cc1)C(=O)N1CCC2(CC1)COc1cc(C(F)F)ccc12 [Example 101, N-(4-Chlorophenyl)-2-(6-(difluoromethyl)-2H-spiro[benzofuran-3,4′-piperidin]-1′-yl)-2-oxoacetamide]
12 | 6.00 to 7.00 | O=C(Nc1ccc(CC(F)(F)F)cc1)C(=O)N1CCC(c2ccnc3ccc(F)cc23)CC1 [1/36]
13 | > 7.00 | O=C(Nc1ccc(C(F)F)cc1)C(=O)N1CCC(c2ccnc3ccc(F)cc23)CC1 [1/22]
14 | < 6.00 | Cc1nc(NC(=O)C(=O)N2CCC(c3ccnc4ccc(F)cc34)CC2)ccc1-c1cnn(C)c1 [5/6]
15 | 6.00 to 7.00 | Cc1nc(NC(=O)C(=O)N2CCC(c3ccnc4ccc(F)cc34)CC2)ccc1Cl [5/3]
16 | > 7.00 | O=C(Nc1ccc(Cl)cc1F)C(=O)N1CCC=C(c2ccnc3ccc(F)cc23)CC1 [1/12]
17 | < 6.00 | O=C(N[C@H]1CCc2ccccc21)C(=O)N1CCC(c2ccnc3ccc(F)cc23)CC1 [8/2]
18 | > 7.00 | O=C(Nc1ccc(Cl)cc1)C(=O)N1CCC(c2ccnc3c(F)cc(F)cc23)CC1 [1/30]
19 | > 7.00 | O=C(Nc1ccc(Br)cc1F)C(=O)N1CCC(c2ccnc3ccc(F)cc23)CC1 [1/26]

Row | pIC50 | SMILES
20 | > 7.00 | O=C(Nc1ccc(Cl)cc1F)C(=O)N1CCC(c2ccnc3ccc(F)cc23)CC1 [1/6]
21 | > 7.00 | O=C(Nc1ccc(Cl)cn1)C(=O)N1CCCC(c2ccnc3ccccc23)CC1 (centres unmarked) [1/8]
22 | < 6.00 | O=C(Nc1ccc(Cl)cn1)C(=O)N1CCC2(CC1)NC(=O)c1ccccc12 [100/6]
23 | < 6.00 | O=C(NCc1ccc(Cl)o1)C(=O)N1CCC(c2ccnc3ccc(F)cc23)CC1 [2/2]
24 | > 7.00 | O=C(Nc1ccc(Cl)cn1)C(=O)N1CCC(c2ccnc3ccccc23)CC1 [Example 3, N-(5-Chloropyridin-2-yl)-2-oxo-2-(4-(quinolin-4-yl)piperidin-1-yl)acetamide]
25 | < 6.00 | CC(C)(O)c1ccc2nccc(C3CCN(C(=O)C(=O)Nc4ccc(Cl)cc4)CC3)c2c1 [1/42]
26 | < 6.00 | O=C(Nc1ccc(-c2cncnc2)cn1)C(=O)N1CCC(c2ccnc3ccc(F)cc23)CC1 [5/5]
27 | > 7.00 | O=C(Nc1ccc(Cl)cc1)C(=O)N1CCC(c2ccnc3cc(F)ccc23)CC1 [1/31]
28 | > 7.00 | O=C(Nc1ccc(Cl)cc1)C(=O)N1CC[C@@H](c2ccnc3ccc(F)cc23)[C@H](O)C1 (single isomer, unassigned) [Example 10a, trans-N-(4-Chlorophenyl)-2-(4-(6-fluoroquinolin-4-yl)-3-hydroxypiperidin-1-yl)-2-oxoacetamide]
29 | > 7.00 | CC1(C)CC(c2ccnc3ccccc23)CCN1C(=O)C(=O)Nc1ccc(Cl)cn1 (centres unmarked) [1/11]
30 | < 6.00 | CS(=O)(=O)c1ccc(NC(=O)C(=O)N2CCC(c3ccnc4ccc(F)cc34)CC2)cc1 [5/10]
31 | 6.00 to 7.00 | O=C(Nc1ccc(Cl)cn1)C(=O)N1CCC(F)(c2ccnc3ccccc23)CC1 [1/35]
32 | > 7.00 | O=C(Nc1ccc(Cl)cc1)C(=O)N1CCC(c2ccnc3cc(Cl)ccc23)CC1 [1/48]
33 | < 6.00 | O=C(NC1CCC2(CC1)CC2)C(=O)N1CCC(c2ccnc3ccc(F)cc23)CC1 [8/5]
34 | > 7.00 | O=C(Nc1ccc(Cl)cc1)C(=O)N1CCC(c2ccnc3ccc(Cl)cc23)CC1 [1/47]
35 | < 6.00 | O=C(N[C@@H]1CCc2ccccc21)C(=O)N1CCC(c2ccnc3ccc(F)cc23)CC1 [8/1]
36 | < 6.00 | O=C(Nc1ccc(Cl)cn1)C(=O)N1CCC(O)(c2ccnc3ccccc23)CC1 [1/9]
37 | < 6.00 | COc1cc(C2CCN(C(=O)C(=O)Nc3ccc(Cl)cn3)CC2)c2ccccc2n1 [1/34]
38 | < 6.00 | O=C(NCc1ccc(Cl)cc1)C(=O)N1CCC(c2ccnc3ccc(F)cc23)CC1 [2/1]

Reference: US20200352931A1, “OXALAMIDES AS MODULATORS OF INDOLEAMINE 2,3-DIOXYGENASE” (PHENEX DISCOVERY VERWALTUNGS-GMBH, priority 2017, published 2020)
